We go through 10 molecules from paper PMC12632266, “A dual L-glucose/L-galactose catabolic pathway in Luteolibacter species strain LG18” (Journal of Bacteriology, 2025).

Assay [1] has as its target T1, His6-LguA (L-GDH) (Luteolibacter sp. LG18, UniProt Z9K5S2U0J3).
T1 construct: full-length ORF, N-terminal His6 (pET28a), E. coli BL21 Star (DE3); native N-terminus METRKLGNTGLDVSV
T1 sequence (Z9K5S2U0J3 21-349): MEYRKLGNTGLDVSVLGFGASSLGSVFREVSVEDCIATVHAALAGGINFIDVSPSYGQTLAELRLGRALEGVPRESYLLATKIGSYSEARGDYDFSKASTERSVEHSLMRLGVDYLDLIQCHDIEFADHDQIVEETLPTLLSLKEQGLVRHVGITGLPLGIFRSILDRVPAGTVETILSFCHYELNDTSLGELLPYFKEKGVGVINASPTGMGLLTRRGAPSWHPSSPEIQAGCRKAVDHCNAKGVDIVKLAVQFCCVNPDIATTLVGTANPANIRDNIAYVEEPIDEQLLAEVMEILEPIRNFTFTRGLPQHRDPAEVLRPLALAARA
The experiment in a line: NADP+ reduction at […] nm. It counts as biochemical. The following applies: 10 mM Tris-HCl pH 7.5, 25°C.

Assay [2] concerns T2, His6-LguD (L-GnDH).
T2 construct: full-length ORF, N-terminal His6 (pET28a), E. coli BL21 Star (DE3); native N-terminus MKTLVLREPG
The experiment in a line: NAD+ reduction at […] nm. The following applies: 10 mM Tris-HCl pH 7.5, 25°C. It counts as biochemical, Luteolibacter sp. LG18.

For assay [3], the system named is T3, His6-LguH.
T3 construct: full-length ORF, N-terminal His6 (pET28a), E. coli BL21 Star (DE3)
The experiment in a line: coupled LguE/GAPDH, NADH formation at […] nm. It counts as biochemical, Luteolibacter sp. LG18. The following applies: 1 mM MgCl2, 100 mM potassium phosphate pH 7.0, 25°C.

The subject of assay [4] is T4, His6-LguE.
T4 construct: full-length ORF, N-terminal His6 (pET28a), E. coli BL21 Star (DE3)
The experiment in a line: coupled LDH, NADH oxidation (pyruvate production). The following applies: 100 mM potassium phosphate pH 7.0, 25°C. The class given is biochemical, Luteolibacter sp. LG18. From the text:
coupled LDH, NADH oxidation (pyruvate production) on His6-LguE

Molecules are shown by their SMILES.

As for `OC[C@@H]1OC(O)[C@@H](O)[C@H](O)[C@H]1O` (stereo partly drawn) [L-glucose], in assay [1] (1 mM NADP+), the Michaelis-Menten constant (Km) turned out to be 7700 ± 490 µM. Consider `O=C(O)[C@@H](O)[C@H](O)[C@@H](O)[C@@H](O)CO` [L-gluconate], for which the Michaelis constant (Km) in assay [2] (1 mM NAD+) came out at 4300 ± 340 µM.

As to `OC[C@@H]1OC(O)[C@@H](O)[C@H](O)[C@@H]1O` (stereo partly drawn) [L-galactose], the Michaelis constant (Km) in assay [1] (1 mM NADP+) is 91.7 µM.

Regarding `O=C(O)C(=O)C[C@H](O)[C@H](O)CO` [KDG], in assay [3] (10 mM PPi), the Km amounted to 198 ± 12 µM. As to `NC(=O)c1ccc[n+]([C@@H]2O[C@H](COP(=O)(O)OP(=O)(O)OC[C@H]3O[C@@H](n4cnc5c(N)ncnc54)[C@H](O)[C@@H]3O)[C@@H](O)[C@H]2O)c1` [NAD^+], the Km in assay [2] (20 mM L-gluconate) worked out at 450 ± 30 µM. As to `O=P(O)(O)OP(=O)(O)O` [PPi], the Michaelis constant (Km) in assay [3] (5 mM KDG, phosphate donor) was 306 ± 63 µM. `NC(=O)c1ccc[n+]([C@@H]2O[C@H](COP(=O)(O)OP(=O)(O)OC[C@H]3O[C@@H](n4cnc5c(N)ncnc54)[C@H](OP(=O)(O)O)[C@@H]3O)[C@@H](O)[C@H]2O)c1` [NADP^+]: in assay [1] (100 mM L-glucose), the Km was found to be 79.3 µM.

On to `O=C(O)C(=O)C[C@H](O)[C@H](O)COP(=O)(O)O` [KDPG], for which, in assay [4], the Michaelis constant (Km) was found to be 137 ± 10 µM. As to `Nc1ncnc2c1ncn2[C@@H]1O[C@H](COP(=O)(O)OP(=O)(O)OP(=O)(O)O)[C@@H](O)[C@H]1O` [ATP], the Michaelis constant (Km) in assay [3] (5 mM KDG, phosphate donor) amounted to 55 ± 47 µM.

On to `O=C(O)[C@@H](O)[C@H](O)[C@H](O)[C@@H](O)CO` [L-galactonate], for which the Michaelis-Menten constant (Km) in assay [2] (1 mM NAD+) is 2960 ± 230 µM.
